Measured values taken from publication PMC11576293, “New series of 4,6-diaryl pyrimidines: facile synthesis and antiproliferative activity as dual EGFR/VEGFR-2 inhibitors” (Frontiers in Chemistry, 2024).

Tests used:
Format in all cases: cell-based
MCF-7 = test: Antiproliferative assay (MTT); settings: Homo sapiens, MCF7, MCF-7 (breast), read-out: Antiproliferative activity IC50 ± SEM, MCF-7
How it was run: (§1)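 MTT assay on tumour cell lines, compound in 0.1% DMSO final, 96 h at 37 °C. MTT at 0.4 mg/mL for 3 h, then DMSO solubilisation and absorbance at 540 nm. IC50 from dose-response, at least two independent runs in triplicate.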

HT-29 = test: Antiproliferative assay (MTT); settings: Homo sapiens, HT-29 (colon), read-out: Antiproliferative activity IC50 ± SEM, HT-29
How it was run: as §1

A-549 = test: Antiproliferative assay (MTT); settings: Homo sapiens, A549, A-549 (lung), read-out: Antiproliferative activity IC50 ± SEM, A-549
How it was run: as §1

Panc-1 = test: Antiproliferative assay (MTT); settings: Homo sapiens, Panc-1 (pancreatic), read-out: Antiproliferative activity IC50 ± SEM, Panc-1
How it was run: as §1

LOX IMVI = test: NCI-60 single-dose screen; settings: Homo sapiens, single dose 10 µM, '-' = no inhibition, read-out: % Growth Inhibition
How it was run: (§2)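 Single concentration (10 μM) per compound, assayed by the NCI DTP against its 60-line panel covering leukemia, lung, colon, CNS, melanoma, ovarian, renal, prostate and breast cancers.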

SF-295 = test: NCI-60 single-dose screen; settings: Homo sapiens, single dose 10 µM, '-' = no inhibition, read-out: % Growth Inhibition
How it was run: as §2

HCT-15 = test: NCI-60 single-dose screen; settings: Homo sapiens, single dose 10 µM, '-' = no inhibition, read-out: % Growth Inhibition
How it was run: as §2

MCF7 = test: NCI-60 single-dose screen; settings: Homo sapiens, single dose 10 µM, '-' = no inhibition, read-out: % Growth Inhibition
How it was run: as §2

CCRF-CEM = test: NCI-60 single-dose screen; settings: Homo sapiens, single dose 10 µM, '-' = no inhibition, read-out: % Growth Inhibition
How it was run: as §2

EKVX = test: NCI-60 single-dose screen; settings: Homo sapiens, single dose 10 µM, '-' = no inhibition, read-out: % Growth Inhibition
How it was run: as §2

MOLT-4 = test: NCI-60 single-dose screen; settings: Homo sapiens, single dose 10 µM, '-' = no inhibition, read-out: % Growth Inhibition
How it was run: as §2

MDA-MB-435 = test: NCI-60 single-dose screen; settings: Homo sapiens, single dose 10 µM, '-' = no inhibition, read-out: % Growth Inhibition
How it was run: as §2

SW-620 = test: NCI-60 single-dose screen; settings: Homo sapiens, single dose 10 µM, '-' = no inhibition, read-out: % Growth Inhibition
How it was run: as §2

SNB-75 = test: NCI-60 single-dose screen; settings: Homo sapiens, single dose 10 µM, '-' = no inhibition, read-out: % Growth Inhibition
How it was run: as §2

HOP-62 = test: NCI-60 single-dose screen; settings: Homo sapiens, single dose 10 µM, '-' = no inhibition, read-out: % Growth Inhibition
How it was run: as §2

T-47D = test: NCI-60 single-dose screen; settings: Homo sapiens, T47D, single dose 10 µM, '-' = no inhibition, read-out: % Growth Inhibition
How it was run: as §2

KM12 = test: NCI-60 single-dose screen; settings: Homo sapiens, single dose 10 µM, '-' = no inhibition, read-out: % Growth Inhibition
How it was run: as §2

MALME-3M = test: NCI-60 single-dose screen; settings: Homo sapiens, single dose 10 µM, '-' = no inhibition, read-out: % Growth Inhibition
How it was run: as §2

A498 = test: NCI-60 single-dose screen; settings: Homo sapiens, single dose 10 µM, '-' = no inhibition, read-out: % Growth Inhibition
How it was run: as §2

M14 = test: NCI-60 single-dose screen; settings: Homo sapiens, single dose 10 µM, '-' = no inhibition, read-out: % Growth Inhibition
How it was run: as §2

SMILES: COc1ccc(CSc2nc(-c3ccc(Cl)cc3)cc(-c3ccc(OC)c(OC)c3)n2)cc1 [Compound 29, 2-(4-Methoxybenzylthio)-4-(4-chlorophenyl)-6-(3,4-dimethoxyphenyl)pyrimidine]
- IC50 (MCF-7): 25 ± 2 nM
- IC50 (HT-29): 24 ± 2 nM
- IC50 (A-549): 23 ± 2 nM
- IC50 (Panc-1): 23 ± 2 nM
- inhibition at 10 µM (LOX IMVI): 20.9%
- inhibition at 10 µM (SF-295): 16.7%
- inhibition at 10 µM (HCT-15): 42.1%
- inhibition at 10 µM (MCF7): 27.4%
- inhibition at 10 µM (CCRF-CEM): 14.2%
- inhibition at 10 µM (EKVX): 29.7%
- inhibition at 10 µM (MOLT-4): 46.5%
- inhibition at 10 µM (MDA-MB-435): 22.8%
- inhibition at 10 µM (SW-620): 12.7%
- inhibition at 10 µM (SNB-75): 1.93%
- inhibition at 10 µM (HOP-62): 16.4%
- inhibition at 10 µM (T-47D): 34.6%
- inhibition at 10 µM (KM12): 24.8%
- inhibition at 10 µM (MALME-3M): 4.95%
- inhibition at 10 µM (A498): < 0%
- inhibition at 10 µM (M14): 19.3%
